Test results from ChEMBL document CHEMBL6153125, “Harnessing the Magic Methyl Effect: Discovery of CLPP-2068 as a Novel HsClpP Activator for the Treatment of Diffuse Large B-Cell Lymphoma” (J Med Chem, 2025).

Experiments:
[1] = target: Bcr/Abl fusion protein (Homo sapiens, UniProt P00519); assay: Inhibition of Bcr-Abl (unknown origin)
[2] = Half life in ICR mouse at 15 mg/kg, po measured upto 24 hrs by LC-MS/MS analysis; conditions: in vivo
[3] = MRT in ICR mouse at 15 mg/kg, po measured upto 24 hrs by LC-MS/MS analysis; conditions: in vivo
[4] = Half life in ICR mouse at 5 mg/kg, iv measured upto 24 hrs by LC-MS/MS analysis; conditions: in vivo
[5] = Clearance in ICR mouse at 5 mg/kg, iv measured upto 24 hrs by LC-MS/MS analysis; conditions: in vivo
[6] = MRT in ICR mouse at 5 mg/kg, iv measured upto 24 hrs by LC-MS/MS analysis; conditions: in vivo
[7] = Metabolic stability in human liver microsomes assessed as half life
[8] = Metabolic stability in human liver microsomes assessed as intrinsic clearance
[9] = in vivo; conditions: ICR, mouse, po, 15 mg/kg
Description: Tmax in ICR mouse at 15 mg/kg, po measured upto 24 hrs by LC-MS/MS analysis

[10] = in vivo; conditions: ICR, mouse, po, 15 mg/kg; remark: listed apart in the source
Description: Cmax in ICR mouse at 15 mg/kg, po measured upto 24 hrs by LC-MS/MS analysis

[11] = in vivo; conditions: ICR, mouse, po, 15 mg/kg; remark: listed apart in the source
Description: AUC (0 to t) in ICR mouse at 15 mg/kg, po measured upto 24 hrs by LC-MS/MS analysis

[12] = in vivo; conditions: ICR, mouse, po, 15 mg/kg; remark: listed apart in the source
Description: Oral bioavailability in ICR mouse at 15 mg/kg measured upto 24 hrs by LC-MS/MS analysis

[13] = in vivo; conditions: ICR, mouse, iv, 5 mg/kg
[14] = target: Voltage-gated inwardly rectifying potassium channel KCNH2 (Homo sapiens, UniProt Q12809)
[15] = target: ATP-dependent Clp protease proteolytic subunit, mitochondrial (Homo sapiens, UniProt Q16740); assay: Activation of human ClpP extracted from Escherichia coli using Ac-WLA-AMC as substrate assessed as fluorescence signal measured after 10 mins incubation
[16] = system: SU-DHL-6; assay: Antiproliferative activity against human SU-DHL-6 cells assessed as cell viability measured after 72 hrs incubation by CellTiter-based growth inhibition assay; conditions: SU-DHL-6, 72 h
[17] = system: OCI-Ly3; assay: Antiproliferative activity against human OCI-Ly3 cells assessed as cell viability measured after 72 hrs incubation by CellTiter-based growth inhibition assay; conditions: OCI-Ly3, 72 h
[18] = system: SUD4; assay: Antiproliferative activity against human SU-DHL-4 cells assessed as cell viability measured after 72 hrs incubation by CellTiter-based growth inhibition assay; conditions: SU-DHL-4, 72 h
[19] = system: SU-DHL-2; assay: Antiproliferative activity against human SU-DHL-2 cells assessed as cell viability measured after 72 hrs incubation by CellTiter-based growth inhibition assay; conditions: SU-DHL-2, 72 h
[20] = system: Toledo; assay: Antiproliferative activity against human Toledo cells assessed as cell viability measured after 72 hrs incubation by CellTiter-based growth inhibition assay
[21] = Half life in ICR mouse at 10 mg/kg, po measured upto 24 hrs by LC-MS/MS analysis; conditions: in vivo
[22] = MRT in ICR mouse at 10 mg/kg, po measured upto 24 hrs by LC-MS/MS analysis; conditions: in vivo
[23] = Half life in ICR mouse at 2 mg/kg, iv measured upto 24 hrs by LC-MS/MS analysis; conditions: in vivo
[24] = AUCt in ICR mouse at 2 mg/kg, iv measured upto 24 hrs by LC-MS/MS analysis; conditions: in vivo
[25] = Clearance in ICR mouse at 2 mg/kg, iv measured upto 24 hrs by LC-MS/MS analysis; conditions: in vivo
[26] = MRT in ICR mouse at 2 mg/kg, iv measured upto 24 hrs by LC-MS/MS analysis; conditions: in vivo
[27] = Volume of distribution at steady state in ICR mouse at 2 mg/kg measured upto 24 hrs by LC-MS/MS analysis; conditions: in vivo, iv
[28] = Metabolic stability in rat liver microsomes assessed as half life
[29] = Metabolic stability in rat liver microsomes assessed as intrinsic clearance
[30] = Metabolic stability in rat liver microsomes assessed as apparent intrinsic clearance
[31] = Metabolic stability in human liver microsomes assessed as apparent intrinsic clearance
[32] = Metabolic stability in rat liver microsomes assessed as hepatic clearance
[33] = Metabolic stability in human liver microsomes assessed as hepatic clearance
[34] = Metabolic stability in rat liver microsomes assessed as hepatic extraction
[35] = Metabolic stability in human liver microsomes assessed as hepatic extraction
[36] = in vivo; conditions: ICR, mouse, po, 10 mg/kg
Description: Tmax in ICR mouse at 10 mg/kg, po measured upto 24 hrs by LC-MS/MS analysis

[37] = in vivo; conditions: ICR, mouse, po, 10 mg/kg; remark: listed apart in the source
Description: Cmax in ICR mouse at 10 mg/kg, po measured upto 24 hrs by LC-MS/MS analysis

[38] = in vivo; conditions: ICR, mouse, po, 10 mg/kg; remark: listed apart in the source
Description: AUC (0 to t) in ICR mouse at 10 mg/kg, po measured upto 24 hrs by LC-MS/MS analysis

[39] = in vivo; conditions: ICR, mouse, po, 10 mg/kg; remark: listed apart in the source
Description: Oral bioavailability in ICR mouse at 10 mg/kg measured upto 24 hrs by LC-MS/MS analysis

[40] = system: OCI-Ly10; assay: Antiproliferative activity against human OCI-Ly10 cells assessed as cell viability measured after 72 hrs incubation by CellTiter-based growth inhibition assay; conditions: OCI-Ly10, 72 h

ATP-dependent Clp protease proteolytic subunit, mitochondrial, sequence (Q16740 whole entry): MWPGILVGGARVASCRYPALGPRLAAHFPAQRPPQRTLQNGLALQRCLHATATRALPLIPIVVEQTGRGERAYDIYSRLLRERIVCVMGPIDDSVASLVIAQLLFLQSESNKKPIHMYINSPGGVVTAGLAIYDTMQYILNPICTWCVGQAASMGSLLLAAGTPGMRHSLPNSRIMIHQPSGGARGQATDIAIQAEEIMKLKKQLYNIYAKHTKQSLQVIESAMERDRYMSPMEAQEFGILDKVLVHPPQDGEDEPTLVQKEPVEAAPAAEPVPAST
Voltage-gated inwardly rectifying potassium channel KCNH2, sequence (Q12809 whole entry): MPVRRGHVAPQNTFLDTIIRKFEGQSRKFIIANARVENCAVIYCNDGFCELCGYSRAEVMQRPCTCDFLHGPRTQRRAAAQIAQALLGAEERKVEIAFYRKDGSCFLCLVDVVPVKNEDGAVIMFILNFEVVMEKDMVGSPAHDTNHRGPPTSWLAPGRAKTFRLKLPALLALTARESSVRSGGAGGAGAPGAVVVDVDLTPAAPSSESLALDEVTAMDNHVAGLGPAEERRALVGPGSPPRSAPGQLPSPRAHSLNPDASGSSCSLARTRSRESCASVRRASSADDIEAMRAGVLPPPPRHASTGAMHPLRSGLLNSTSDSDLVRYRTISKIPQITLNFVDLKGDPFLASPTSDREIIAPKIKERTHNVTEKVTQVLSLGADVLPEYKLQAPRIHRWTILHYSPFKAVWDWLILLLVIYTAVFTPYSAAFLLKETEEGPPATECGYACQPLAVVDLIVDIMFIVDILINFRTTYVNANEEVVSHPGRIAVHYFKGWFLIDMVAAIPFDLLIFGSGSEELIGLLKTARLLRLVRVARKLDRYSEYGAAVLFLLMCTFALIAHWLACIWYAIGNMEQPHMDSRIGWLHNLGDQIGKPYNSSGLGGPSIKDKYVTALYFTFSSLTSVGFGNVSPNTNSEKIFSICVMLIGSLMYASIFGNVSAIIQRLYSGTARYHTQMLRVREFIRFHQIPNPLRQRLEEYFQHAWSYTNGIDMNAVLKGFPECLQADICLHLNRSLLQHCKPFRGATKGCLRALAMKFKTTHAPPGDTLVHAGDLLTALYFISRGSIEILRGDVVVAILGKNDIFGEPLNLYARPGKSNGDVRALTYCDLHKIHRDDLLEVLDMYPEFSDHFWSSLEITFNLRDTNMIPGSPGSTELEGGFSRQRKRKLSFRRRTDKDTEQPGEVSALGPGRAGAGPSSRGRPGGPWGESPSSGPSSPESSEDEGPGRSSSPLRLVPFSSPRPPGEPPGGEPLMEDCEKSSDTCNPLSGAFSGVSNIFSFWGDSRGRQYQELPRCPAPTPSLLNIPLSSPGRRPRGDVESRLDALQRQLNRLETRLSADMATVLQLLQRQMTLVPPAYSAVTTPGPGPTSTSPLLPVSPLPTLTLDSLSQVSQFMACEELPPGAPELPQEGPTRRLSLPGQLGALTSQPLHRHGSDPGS
Bcr/Abl fusion protein, sequence (P00519 whole entry, the tested form may be a part): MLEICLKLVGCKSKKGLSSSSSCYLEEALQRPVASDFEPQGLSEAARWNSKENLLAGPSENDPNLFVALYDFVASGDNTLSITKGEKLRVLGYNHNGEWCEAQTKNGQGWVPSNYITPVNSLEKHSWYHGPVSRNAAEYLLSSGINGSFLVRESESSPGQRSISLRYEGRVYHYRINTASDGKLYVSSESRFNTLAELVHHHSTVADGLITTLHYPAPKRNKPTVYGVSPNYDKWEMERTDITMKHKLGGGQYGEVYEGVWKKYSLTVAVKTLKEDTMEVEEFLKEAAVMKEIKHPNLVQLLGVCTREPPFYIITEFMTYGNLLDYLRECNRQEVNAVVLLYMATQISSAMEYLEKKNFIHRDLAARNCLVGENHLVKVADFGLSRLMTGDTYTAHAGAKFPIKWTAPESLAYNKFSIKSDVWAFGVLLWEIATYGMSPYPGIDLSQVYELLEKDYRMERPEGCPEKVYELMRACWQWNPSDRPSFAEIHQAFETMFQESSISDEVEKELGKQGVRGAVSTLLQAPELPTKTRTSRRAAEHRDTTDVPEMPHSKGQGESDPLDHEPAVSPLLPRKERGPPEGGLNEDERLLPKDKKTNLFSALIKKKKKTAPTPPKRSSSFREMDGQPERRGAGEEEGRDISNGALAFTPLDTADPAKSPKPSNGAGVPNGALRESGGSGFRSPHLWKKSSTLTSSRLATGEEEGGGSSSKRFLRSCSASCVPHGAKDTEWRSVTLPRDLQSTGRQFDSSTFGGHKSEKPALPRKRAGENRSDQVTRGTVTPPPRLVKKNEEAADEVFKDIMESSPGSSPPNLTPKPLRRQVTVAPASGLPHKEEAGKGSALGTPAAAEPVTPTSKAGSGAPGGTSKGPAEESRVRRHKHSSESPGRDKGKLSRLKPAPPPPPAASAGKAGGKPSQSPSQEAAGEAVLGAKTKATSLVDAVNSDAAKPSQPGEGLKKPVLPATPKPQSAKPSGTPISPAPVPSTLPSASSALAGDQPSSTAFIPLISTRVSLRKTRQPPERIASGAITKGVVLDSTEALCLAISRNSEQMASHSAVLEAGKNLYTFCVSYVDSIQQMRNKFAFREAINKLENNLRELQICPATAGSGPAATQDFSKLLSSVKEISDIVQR
Bcr/Abl fusion protein, sequence (P11274 whole entry, further chain, the tested form may be a part): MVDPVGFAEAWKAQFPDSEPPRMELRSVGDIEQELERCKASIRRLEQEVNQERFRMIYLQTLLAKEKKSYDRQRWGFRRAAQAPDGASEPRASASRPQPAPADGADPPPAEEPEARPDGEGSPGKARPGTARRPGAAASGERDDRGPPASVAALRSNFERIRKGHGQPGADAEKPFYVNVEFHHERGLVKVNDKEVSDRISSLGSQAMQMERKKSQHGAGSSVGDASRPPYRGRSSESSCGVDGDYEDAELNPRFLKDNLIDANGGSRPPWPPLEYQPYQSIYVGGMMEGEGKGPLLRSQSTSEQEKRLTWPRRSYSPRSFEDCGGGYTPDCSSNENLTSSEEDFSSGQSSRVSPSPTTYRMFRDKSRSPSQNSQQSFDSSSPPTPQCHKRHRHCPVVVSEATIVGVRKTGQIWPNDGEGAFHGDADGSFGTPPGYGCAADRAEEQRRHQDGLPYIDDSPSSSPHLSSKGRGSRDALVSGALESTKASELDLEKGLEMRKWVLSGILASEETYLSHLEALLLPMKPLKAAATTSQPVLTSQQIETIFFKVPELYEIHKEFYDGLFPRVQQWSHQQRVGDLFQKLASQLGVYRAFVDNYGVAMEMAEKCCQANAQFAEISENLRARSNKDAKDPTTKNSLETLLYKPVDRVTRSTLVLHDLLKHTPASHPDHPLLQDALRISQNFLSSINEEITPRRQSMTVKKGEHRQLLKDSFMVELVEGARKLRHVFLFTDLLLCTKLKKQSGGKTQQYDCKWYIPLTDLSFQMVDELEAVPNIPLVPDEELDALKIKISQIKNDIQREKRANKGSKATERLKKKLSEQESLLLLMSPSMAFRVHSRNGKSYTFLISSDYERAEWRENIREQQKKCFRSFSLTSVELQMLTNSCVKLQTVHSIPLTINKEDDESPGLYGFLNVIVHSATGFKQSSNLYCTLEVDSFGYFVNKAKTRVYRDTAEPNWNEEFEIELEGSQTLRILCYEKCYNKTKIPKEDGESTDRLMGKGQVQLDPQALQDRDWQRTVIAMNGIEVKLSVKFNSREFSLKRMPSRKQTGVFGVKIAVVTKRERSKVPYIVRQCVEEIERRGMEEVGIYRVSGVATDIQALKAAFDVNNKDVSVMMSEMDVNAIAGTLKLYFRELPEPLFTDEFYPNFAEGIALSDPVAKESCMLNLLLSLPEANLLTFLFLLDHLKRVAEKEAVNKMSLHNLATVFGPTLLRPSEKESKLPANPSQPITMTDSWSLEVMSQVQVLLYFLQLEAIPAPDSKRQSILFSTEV

Structure (SMILES): O=C(Nc1cccc(Nc2nccc(-c3cccnc3)n2)c1)c1ccccc1
- IC50 [1]: 200 nM

Structure (SMILES): Cc1ccccc1CN1C(=O)C2=C(CCN(Cc3ccccc3)C2)N2CCN=C12.Cl.Cl.O
- half-life at 24 h [2]: 1.05 h
- MRT at 24 h [3]: 1.46 h
- half-life at 24 h [4]: 0.91 h
- clearance at 24 h [5]: 42.7 mL/min/kg
- MRT at 24 h [6]: 0.86 h
- half-life [7]: 9.3 h
- CLint scaled [8]: 187 mL/min/kg
- Tmax at 24 h [9]: 0.42 h
- Cmax at 24 h [10]: 566 ng/mL
- AUC(0-t) at 24 h [11]: 894 ng·h/mL
- bioavailability at 24 h [12]: 15.2%
- AUC(0-t) at 24 h [13]: 1960 ng·h/mL

Structure (SMILES): O=c1nc2n(c3c1CN(Cc1ccccc1)CC3)CCN2Cc1ccc(F)c(Br)c1
- IC50 [14]: 1520 nM

Structure (SMILES): O=C1C2=C(CCN(Cc3ccccc3)C2)N2CCN=C2N1Cc1ccc(C(F)(F)F)cc1
- EC50 [15]: 156 nM
- IC50 [16]: 91.8 nM
- IC50 [17]: 148 nM
- IC50 [18]: 250 nM
- IC50 [19]: 222 nM
- IC50 [20]: > 250 nM
- half-life at 24 h [21]: 3.75 h
- MRT at 24 h [22]: 4.65 h
- half-life at 24 h [23]: 2.01 h
- AUC(0-t) at 24 h [24]: 1530 ng·h/mL
- clearance at 24 h [25]: 21.8 mL/min/kg
- MRT at 24 h [26]: 1.72 h
- Vd at 24 h [27]: 2.25 L/kg
- half-life [28]: 7.1 h
- half-life [7]: 10.2 h
- CLint scaled [29]: 487 mL/min/kg
- CLint scaled [8]: 338 mL/min/kg
- CLint scaled [30]: 876 mL/min/kg
- CLint scaled [31]: 396 mL/min/kg
- CLhep predicted [32]: 51.9 mL/min/kg
- CLhep predicted [33]: 19.7 mL/min/kg
- hepatic extraction ratio [34]: 0.941
- hepatic extraction ratio [35]: 0.95
- IC50 [14]: > 40000 nM
- Tmax at 24 h [36]: 0.42 h
- Cmax at 24 h [37]: 873 ng/mL
- AUC(0-t) at 24 h [38]: 3350 ng·h/mL
- bioavailability at 24 h [39]: 43.7%

Structure (SMILES): O=c1nc(NCc2ccc(C(F)(F)F)cc2)[nH]c2c1CN(Cc1ccccc1)CC2
- EC50 [15]: 2410 nM

Structure (SMILES): C[C@@H]1Cc2nc(NCc3cccc4ccccc34)[nH]c(=O)c2CN1Cc1cccc(C#N)c1
- EC50 [15]: 67.9 nM
- IC50 [40]: 105 nM

Structure (SMILES): C[C@@H]1Cc2nc(NCc3ccc(C(F)(F)F)cc3)[nH]c(=O)c2CN1Cc1ccccc1O
- EC50 [15]: 846 nM
- IC50 [40]: 1290 nM

Structure (SMILES): C[C@@H]1Cc2nc(NCc3ccc(C(F)(F)F)cc3)[nH]c(=O)c2CN1Cc1cccc(C#N)c1
- EC50 [15]: 56.1 nM
- IC50 [40]: 41.6 nM

Structure (SMILES): C[C@@H]1Cc2nc(NCc3ccc(Cl)cc3)[nH]c(=O)c2CN1Cc1cccc(C#N)c1
- EC50 [15]: 59.2 nM
- IC50 [40]: 13.5 nM

Structure (SMILES): C[C@@H]1Cc2nc(NCc3ccc(C(F)(F)F)cc3)[nH]c(=O)c2CN1CC1CCCCC1
- EC50 [15]: 302 nM
- IC50 [40]: 789 nM

Structure (SMILES): Cc1cc(Br)ccc1CNc1nc2c(c(=O)[nH]1)CN(Cc1cccc(C#N)c1)[C@H](C)C2
- EC50 [15]: 93 nM
- IC50 [40]: 86.9 nM

Structure (SMILES): C[C@@H]1Cc2nc(NCc3ccc(Br)c(F)c3)[nH]c(=O)c2CN1Cc1cccc(C#N)c1
- EC50 [15]: 265 nM
- IC50 [40]: 47.5 nM

Structure (SMILES): C[C@@H]1Cc2nc(NCc3ccc(C(F)(F)F)cc3)[nH]c(=O)c2CN1Cc1cccc2ccccc12
- EC50 [15]: 761 nM
- IC50 [40]: 8210 nM

Structure (SMILES): C[C@@H]1Cc2nc(N3CCC(c4ccccc4)C3)[nH]c(=O)c2CN1Cc1cccc(C#N)c1 (stereo partly specified)
- EC50 [15]: 707 nM
- IC50 [40]: 5750 nM

Structure (SMILES): C[C@@H]1Cc2nc(NCc3ccc(C(F)(F)F)cc3)[nH]c(=O)c2CN1Cc1ccccc1
- EC50 [15]: 65.1 nM

Structure (SMILES): Cc1ccccc1CNc1nc2c(c(=O)[nH]1)CN(Cc1cccc(C#N)c1)[C@H](C)C2
- EC50 [15]: 43.4 nM
- IC50 [40]: 45 nM

Structure (SMILES): Cc1ccc(CNc2nc3c(c(=O)[nH]2)CN(Cc2cccc(C#N)c2)[C@H](C)C3)cc1
- EC50 [15]: 26.9 nM
- IC50 [40]: 117 nM
